Measured values: patent US7153869B2, “Substituted amino acids as erythropoietin mimetics” (priority 1998, dated 2006)
Like-named read-outs stand apart in the source and are kept apart here.

Target: T1, EBP-Ig (N-terminal 225 amino acids of the human EPO receptor joined to an Ig heavy chain) (Homo sapiens, UniProt P19235)
T1 construct: Ig heavy chain (fusion partner); made in house; host or cells: NSO cells (secreted into conditioned media)
T1 sequence (P19235 25-250 limits assumed): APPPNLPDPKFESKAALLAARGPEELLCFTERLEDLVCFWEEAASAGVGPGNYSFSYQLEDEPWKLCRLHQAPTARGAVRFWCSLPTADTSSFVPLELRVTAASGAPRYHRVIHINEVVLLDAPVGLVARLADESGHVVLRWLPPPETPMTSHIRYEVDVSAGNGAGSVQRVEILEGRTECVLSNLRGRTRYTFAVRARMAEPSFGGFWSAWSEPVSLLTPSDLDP
Assay: Inhibition of [125I]EPO binding to immobilized EBP-Ig (EPO binding protein-Ig), scintillation Flash plate competition assay
Conditions: for % inh @ 50 μM (Inhibition of EPO binding to EBP-Ig): 50 μM test compound, average % inhibition; for IC30 μM (Inhibition of EPO binding to EBP-Ig): 0–500 μM test compound
Text: The interaction of biotin and streptavidin is frequently employed to capture and effectively immobilize reagents useful in assay protocols and has been employed here as a simple method to capture and immobilize EBP-Ig. EBP-Ig is initially randomly modified with an amine reactive derivative of biotin to produce biotinylated-EBP-Ig. Use of streptavidin coated plates allows the capture of the biotinylated EBP-Ig on the surface of a scintillant impregnated coated well (Flash plates, NEN-DuPont). […] The amount of light produced was quantified to estimate the amount of ligand binding. The specific assay format was suitable for the multi-well plate capacity of a Packard TopCount Microplate Scintillation counter.
Biotinylated EBP-Ig was prepared as follows. EBP-Ig (3 mL, OD280 2.9) was exchanged into 50 mM sodium bicarbonate, pH 8.5 using a Centriprep 10 ultrafiltration device. The final volume of the exchanged protein was 1.2 mL (OD280 2.6, representing about 2 mg total protein). 10 μL of a 4 mg/ml solution of NHS-LC-Biotin (Pierce) was added and the reaction mixture placed on ice in the dark for two hours. Unreacted biotin was removed by exchange of the reaction buffer into PBS in a Centriprep 10 device and the protein reagent aliquoted and stored at −70° C.
All wells were adjusted to a final DMSO concentration of 5%. […] After all additions were made, the plate was covered with an adhesive top seal and placed in the dark at room temperature overnight. The next day all liquid was aspirated from the wells to limit analyte dependent quench of the signal, and the plates were counted on a Packard TOPCOUNT Microplate Scintillation Counter. […] Corrected total binding (CTB) was calculated as: TB−NSB=CTB. […] Table 1 lists the average % inhibition, and if determined the IC50 and IC30 values for compounds of Formula I, where the compound numbers refer to the compounds in the tables accompanying the preparative examples.

[1] = read-out: % inh @ 50 μM (Inhibition of EPO binding to EBP-Ig)
[2] = read-out: EPO/EBP-Ig % inh @ 50 μM, 50 μM compound, Table 10
[3] = read-out: IC50, μM (Inhibition of EPO binding to EBP-Ig), 0.5 nM [125I]EPO, concentration reducing corrected total binding to 50%
[4] = read-out: EPO/EBP-Ig % inh @ 50 μM, Table 11, 50 μM

| Structure (SMILES) | EPO/EBP-Ig % inh @ 50 μM (50 μM compound, Table 10) [%] | % inh @ 50 μM (Inhibition of EPO binding to EBP-Ig) (0.5 nM [125I]EPO) [%] | IC30 μM (Inhibition of EPO binding to EBP-Ig) (0.5 nM [125I]EPO) [µM] | inhibition at 50 µM [1] [%] | IC50 [3] [µM] | also measured |
| --- | --- | --- | --- | --- | --- | --- |
| COc1ccc(CCNC(=O)C(CCCCNC(=O)Nc2ccc(Cl)c(Cl)c2)N(C/C=C/c2ccccc2)C/C=C/c2ccccc2)cc1 (stereo not shown) [compound 230] | 42 | 42 |  |  |  |  |
| CCOC(=O)c1ccc(NC(=O)NCCCCC(C(=O)NCCc2ccc(OC)cc2)N(C/C=C/c2ccccc2)C/C=C/c2ccccc2)cc1 (stereo not shown) [compound 231] | 36 | 36 |  |  |  |  |
| COc1ccc(CCNC(=O)C(CCCCNC(=O)Nc2ccc(Oc3ccccc3)cc2)N(C/C=C/c2cccc(Oc3ccccc3)c2)C/C=C/c2cccc(Oc3ccccc3)c2)cc1 (stereo not shown) [compound 232] | 14 |  |  |  |  |  |
| COc1cccc(CCNC(=O)C(CCCCN)N(C/C=C/c2ccc([N+](=O)[O-])cc2)C/C=C/c2ccc([N+](=O)[O-])cc2)c1 (stereo not shown) [compound 233] | 18 |  |  |  |  |  |
| NCCCCC(C(=O)NCc1ccccc1)N(CC=Cc1ccccc1)CC=Cc1ccccc1 (stereo not shown) [compound 235] |  |  | 20 | 49 | 50 | inhibition at 50 µM [2]: 49% |
| COc1cccc(CCNC(=O)C(CCCCNC(=O)CCC(=O)O)N(CC=Cc2ccccc2)CC=Cc2ccccc2)c1 (stereo not shown) [compound 237] |  |  | 30 | 55 | 70 | inhibition at 50 µM [2]: 55% |
| COc1ccc(CCNC(=O)C(CCCCN)N(C/C=C/c2ccc(-c3ccccc3)cc2)C/C=C/c2ccc(-c3ccccc3)cc2)cc1 (stereo not shown) [compound 238] | 39 | 39 |  |  |  |  |
| NCCCCC(C(=O)NCCc1ccccc1)N(C/C=C/c1cccc(Oc2ccccc2)c1)C/C=C/c1cccc(Oc2ccccc2)c1 (stereo not shown) [compound 239] | 46 | 46 | 8 |  | 50 |  |
| CC(C)(C)OC(=O)CC(C(=O)NCCCOCCCCOCCCNC(=O)C(CC(=O)OC(C)(C)C)N(Cc1ccc(OCc2ccccc2)cc1)Cc1ccc(OCc2ccccc2)cc1)N(Cc1ccc(OCc2ccccc2)cc1)Cc1ccc(OCc2ccccc2)cc1 (stereo not shown) [compound 241] |  |  |  |  |  | EPO/EBP-Ig % inh @ 50 μM (Table 11, 50 μM): 2% |
| CC(C)(C)OC(=O)CC(C(=O)NCCCOCCOCCOCCCNC(=O)C(CC(=O)OC(C)(C)C)N(Cc1ccc(OCc2ccccc2)cc1)Cc1ccc(OCc2ccccc2)cc1)N(Cc1ccc(OCc2ccccc2)cc1)Cc1ccc(OCc2ccccc2)cc1 (stereo not shown) [compound 242] |  |  |  |  |  | EPO/EBP-Ig % inh @ 50 μM (Table 11, 50 μM): 1% |
| O=C(O)CC(C(=O)NCCCOCCCCOCCCNC(=O)C(CC(=O)O)N(Cc1ccc(OCc2ccccc2)cc1)Cc1ccc(OCc2ccccc2)cc1)N(Cc1ccc(OCc2ccccc2)cc1)Cc1ccc(OCc2ccccc2)cc1 (stereo not shown) [compound 243] |  |  | 2 | 75 |  | IC50: 18 µM; inhibition at 50 µM [4]: 75% |
| O=C(O)CC(C(=O)NCCCOCCOCCOCCCNC(=O)C(CC(=O)O)N(Cc1ccc(OCc2ccccc2)cc1)Cc1ccc(OCc2ccccc2)cc1)N(Cc1ccc(OCc2ccccc2)cc1)Cc1ccc(OCc2ccccc2)cc1 (stereo not shown) [compound 244] |  |  | 1 | 66 |  | IC50: 28 µM; inhibition at 50 µM [4]: 66% |
| O=C(O)CCC(C(=O)NCCOCCOCCNC(=O)C(CCC(=O)O)N(Cc1cccc(NC(=O)c2ccco2)c1)Cc1cccc(Oc2ccccc2)c1)N(Cc1cccc(NC(=O)c2ccco2)c1)Cc1cccc(Oc2ccccc2)c1 (stereo not shown) [compound 248] |  | 56 | 7 |  | 20 | EPO/EBP-Ig % inh @ 50 μM (Table 11, 50 μM): 56% |
